From ChEMBL document CHEMBL3885881, “DrugMatrix”

Species: Rattus norvegicus
Experiment: DrugMatrix - Regimen: Daily Repeat
Format: toxicity, organism-based, Sprague-Dawley
Parameters: regimen Daily Repeat, gender Male, age 6-8 weeks
Conditions: in vivo, sc, route subcutaneous, […]; for ABSOLUTE BASOPHIL / ABSOLUTE EOSINOPHIL / ABSOLUTE LYMPHOCYTE / ABSOLUTE MONOCYTE / ABSOLUTE SEGMENTED NEUTROPHIL / BASOPHIL / EOSINOPHIL / ERYTHROCYTE COUNT / HEMATOCRIT / HEMOGLOBIN / LEUKOCYTE COUNT / LYMPHOCYTE / MEAN CORPUSCULAR HEMOGLOBIN / MEAN CORPUSCULAR HEMOGLOBIN CONCENTRATION / MEAN CORPUSCULAR VOLUME / MONOCYTE / NEUTROPHIL / NUCLEATED RED BLOOD CELLS / PLATELET COUNT: tissue Blood; for ALANINE AMINOTRANSFERASE / ALBUMIN / ALKALINE PHOSPHATASE / ASPARTATE AMINOTRANSFERASE / BLOOD UREA NITROGEN / CARBON DIOXIDE / CHLORIDE / CHOLESTEROL / CREATINE PHOSPHOKINASE / CREATININE / GLUCOSE / LACTATE DEHYDROGENASE / LIPASE / PHOSPHORUS / POTASSIUM / SODIUM / TOTAL BILIRUBIN / TOTAL PROTEIN / URIC ACID: tissue Plasma
[1] = 3 mg/kg, 72 h, dose level Low, time 3 day
[2] = 3 mg/kg, 120 h, dose level Low, time 5 day
[3] = 1500 mg/kg, 72 h, dose level High, time 3 day
[4] = 1500 mg/kg, 120 h, dose level High, time 5 day

SMILES: Clc1ccc(CO/N=C(\Cn2ccnc2)c2ccc(Cl)cc2Cl)c(Cl)c1 [OXICONAZOLE]
- ABSOLUTE BASOPHIL [1]: 0 CELLS/uL
- ABSOLUTE EOSINOPHIL [1]: 0 CELLS/uL
- ABSOLUTE LYMPHOCYTE [1]: 11885.67 CELLS/uL
- ABSOLUTE MONOCYTE [1]: 211.33 CELLS/uL
- ABSOLUTE SEGMENTED NEUTROPHIL [1]: 736.33 CELLS/uL
- BASOPHIL [1]: 0%
- EOSINOPHIL [1]: 0%
- ERYTHROCYTE COUNT [1]: 5.9 x10E6/uL
- HEMATOCRIT [1]: 37.23%
- HEMOGLOBIN [1]: 14.13 G/DL
- LEUKOCYTE COUNT [1]: 12.83 x10E3/uL
- LYMPHOCYTE [1]: 92.33%
- MEAN CORPUSCULAR HEMOGLOBIN [1]: 24 pg
- MEAN CORPUSCULAR HEMOGLOBIN CONCENTRATION [1]: 38 G/DL
- MEAN CORPUSCULAR VOLUME [1]: 63.17 fL
- MONOCYTE [1]: 1.67%
- NEUTROPHIL [1]: 6%
- NUCLEATED RED BLOOD CELLS [1]: 0 /100WBC
- PLATELET COUNT [1]: 1370 x10E3/uL
- ALANINE AMINOTRANSFERASE [1]: 44 u/L
- ALBUMIN [1]: 4.63 G/DL
- ALKALINE PHOSPHATASE [1]: 333.33 u/L
- ASPARTATE AMINOTRANSFERASE [1]: 101.67 u/L
- BLOOD UREA NITROGEN [1]: 18.33 mg/dL
- CARBON DIOXIDE [1]: 21.33 mmol/L
- CHLORIDE [1]: 96 MEQ/L
- CHOLESTEROL [1]: 92.67 mg/dL
- CREATINE PHOSPHOKINASE [1]: 602 u/L
- CREATININE [1]: 0.2 mg/dL
- GLUCOSE [1]: 137 mg/dL
- LACTATE DEHYDROGENASE [1]: 701 u/L
- LIPASE [1]: 10 u/L
- PHOSPHORUS [1]: 12.9 mg/dL
- POTASSIUM [1]: 6.82 MEQ/L
- SODIUM [1]: 140.17 MEQ/L
- TOTAL BILIRUBIN [1]: 0.17 mg/dL
- TOTAL PROTEIN [1]: 6.4 G/DL
- URIC ACID [1]: 1.77 mg/dL
- ABSOLUTE BASOPHIL [2]: 0 CELLS/uL
- ABSOLUTE EOSINOPHIL [2]: 80 CELLS/uL
- ABSOLUTE LYMPHOCYTE [2]: 13140 CELLS/uL
- ABSOLUTE MONOCYTE [2]: 187.67 CELLS/uL
- ABSOLUTE SEGMENTED NEUTROPHIL [2]: 1059 CELLS/uL
- BASOPHIL [2]: 0%
- EOSINOPHIL [2]: 0.67%
- ERYTHROCYTE COUNT [2]: 5.43 x10E6/uL
- HEMATOCRIT [2]: 34.63%
- HEMOGLOBIN [2]: 13.57 G/DL
- LEUKOCYTE COUNT [2]: 14.47 x10E3/uL
- LYMPHOCYTE [2]: 91%
- MEAN CORPUSCULAR HEMOGLOBIN [2]: 25 pg
- MEAN CORPUSCULAR HEMOGLOBIN CONCENTRATION [2]: 39.17 G/DL
- MEAN CORPUSCULAR VOLUME [2]: 63.83 fL
- MONOCYTE [2]: 1.33%
- NEUTROPHIL [2]: 7%
- NUCLEATED RED BLOOD CELLS [2]: 0 /100WBC
- PLATELET COUNT [2]: 1246.67 x10E3/uL
- ALANINE AMINOTRANSFERASE [2]: 45.67 u/L
- ALBUMIN [2]: 4.03 G/DL
- ALKALINE PHOSPHATASE [2]: 333 u/L
- ASPARTATE AMINOTRANSFERASE [2]: 70.33 u/L
- BLOOD UREA NITROGEN [2]: 14 mg/dL
- CARBON DIOXIDE [2]: 27.33 mmol/L
- CHLORIDE [2]: 101 MEQ/L
- CHOLESTEROL [2]: 71.33 mg/dL
- CREATINE PHOSPHOKINASE [2]: 209.67 u/L
- CREATININE [2]: 0.12 mg/dL
- GLUCOSE [2]: 150 mg/dL
- LACTATE DEHYDROGENASE [2]: 187.33 u/L
- LIPASE [2]: 8.67 u/L
- PHOSPHORUS [2]: 11 mg/dL
- POTASSIUM [2]: 6.62 MEQ/L
- SODIUM [2]: 144.57 MEQ/L
- TOTAL BILIRUBIN [2]: 0.23 mg/dL
- TOTAL PROTEIN [2]: 5.9 G/DL
- URIC ACID [2]: 1.23 mg/dL
- ABSOLUTE BASOPHIL [3]: 0 CELLS/uL
- ABSOLUTE EOSINOPHIL [3]: 0 CELLS/uL
- ABSOLUTE LYMPHOCYTE [3]: 11731.33 CELLS/uL
- ABSOLUTE MONOCYTE [3]: 603.33 CELLS/uL
- ABSOLUTE SEGMENTED NEUTROPHIL [3]: 4732 CELLS/uL
- BASOPHIL [3]: 0%
- EOSINOPHIL [3]: 0%
- ERYTHROCYTE COUNT [3]: 4.99 x10E6/uL
- HEMATOCRIT [3]: 31.07%
- HEMOGLOBIN [3]: 12.4 G/DL
- LEUKOCYTE COUNT [3]: 17.07 x10E3/uL
- LYMPHOCYTE [3]: 69.67%
- MEAN CORPUSCULAR HEMOGLOBIN [3]: 24.97 pg
- MEAN CORPUSCULAR HEMOGLOBIN CONCENTRATION [3]: 39.93 G/DL
- MEAN CORPUSCULAR VOLUME [3]: 62.43 fL
- MONOCYTE [3]: 3.67%
- NEUTROPHIL [3]: 26.67%
- NUCLEATED RED BLOOD CELLS [3]: 0 /100WBC
- PLATELET COUNT [3]: 1249.67 x10E3/uL
- ALANINE AMINOTRANSFERASE [3]: 40.33 u/L
- ALBUMIN [3]: 3.03 G/DL
- ALKALINE PHOSPHATASE [3]: 327 u/L
- ASPARTATE AMINOTRANSFERASE [3]: 65.67 u/L
- BLOOD UREA NITROGEN [3]: 12.33 mg/dL
- CARBON DIOXIDE [3]: 22.33 mmol/L
- CHLORIDE [3]: 98.67 MEQ/L
- CHOLESTEROL [3]: 62.67 mg/dL
- CREATINE PHOSPHOKINASE [3]: 173 u/L
- CREATININE [3]: 0.17 mg/dL
- GLUCOSE [3]: 131 mg/dL
- LACTATE DEHYDROGENASE [3]: 217 u/L
- LIPASE [3]: 9 u/L
- PHOSPHORUS [3]: 12.47 mg/dL
- POTASSIUM [3]: 6.61 MEQ/L
- SODIUM [3]: 143.17 MEQ/L
- TOTAL BILIRUBIN [3]: 0.1 mg/dL
- TOTAL PROTEIN [3]: 6.03 G/DL
- URIC ACID [3]: 1.7 mg/dL
- ABSOLUTE BASOPHIL [4]: 0 CELLS/uL
- ABSOLUTE EOSINOPHIL [4]: 0 CELLS/uL
- ABSOLUTE LYMPHOCYTE [4]: 17693 CELLS/uL
- ABSOLUTE MONOCYTE [4]: 655 CELLS/uL
- ABSOLUTE SEGMENTED NEUTROPHIL [4]: 5318.67 CELLS/uL
- BASOPHIL [4]: 0%
- EOSINOPHIL [4]: 0%
- ERYTHROCYTE COUNT [4]: 5.09 x10E6/uL
- HEMATOCRIT [4]: 30.4%
- HEMOGLOBIN [4]: 12.37 G/DL
- LEUKOCYTE COUNT [4]: 23.67 x10E3/uL
- LYMPHOCYTE [4]: 76.67%
- MEAN CORPUSCULAR HEMOGLOBIN [4]: 24.3 pg
- MEAN CORPUSCULAR HEMOGLOBIN CONCENTRATION [4]: 40.7 G/DL
- MEAN CORPUSCULAR VOLUME [4]: 59.73 fL
- MONOCYTE [4]: 3%
- NEUTROPHIL [4]: 20.33%
- NUCLEATED RED BLOOD CELLS [4]: 0.33 /100WBC
- PLATELET COUNT [4]: 1767.33 x10E3/uL
- ALANINE AMINOTRANSFERASE [4]: 33.33 u/L
- ALBUMIN [4]: 2.7 G/DL
- ALKALINE PHOSPHATASE [4]: 254.33 u/L
- ASPARTATE AMINOTRANSFERASE [4]: 66.33 u/L
- BLOOD UREA NITROGEN [4]: 16.67 mg/dL
- CARBON DIOXIDE [4]: 24.33 mmol/L
- CHLORIDE [4]: 103.33 MEQ/L
- CHOLESTEROL [4]: 55.67 mg/dL
- CREATINE PHOSPHOKINASE [4]: 192.33 u/L
- CREATININE [4]: 0.13 mg/dL
- GLUCOSE [4]: 142.33 mg/dL
- LACTATE DEHYDROGENASE [4]: 225.33 u/L
- LIPASE [4]: 7.67 u/L
- PHOSPHORUS [4]: 11.27 mg/dL
- POTASSIUM [4]: 6.81 MEQ/L
- SODIUM [4]: 144.57 MEQ/L
- TOTAL BILIRUBIN [4]: 0.1 mg/dL
- TOTAL PROTEIN [4]: 5.87 G/DL
- URIC ACID [4]: 1.87 mg/dL
